From US20260207563A1, “UREA COMPOUNDS AS ACTIVATORS OF POTASSIUM CHANNELS KV7.2/7.3 USEFUL IN THE TREATMENT OF CNS AND PNS DISORDERS” (ANGELINI PHARMA S.P.A., priority 2022, published 2026)

Molecular target: T1, heteromeric KV7.2/KV7.3 channels (KCNQ2, KCNQ3) (Homo sapiens, UniProt O43525+O43526)
T1 construct: expressed in transfected cells; host or cells: CHO-K1
Assay: Automated patch-clamp (Sophion Qube 384) potency assay against KV7.2/KV7.3 channels
Format: cell-based
Conditions: CHO-K1/Kv7.2/Kv7.3 cells; for EC50: EC50 from concentration-response of shift in Vhalf, 10 concentrations up to 30 μM, read-out: Kv7.2/7.3 EC50; for Kv7.2/7.3 ΔV1/2: maximal shift in the Vhalf from the top of the curve
From the text: Assessment of In Vitro Potency Against KV7.2/KV7.3 Channels
An automated patch-clamp assay on the Sophion Qube 384 was developed for potency testing to identify small molecule activators of heteromeric KV7.2/KV7.3 channels (KCNQ2, Uniprot ID 043526; KCNQ3, Uniprot 043525).
The cell line used was a stably transfected CHO-K1 cell line with constitutive KV7.2/KV7.3 expression.
CHO-K1/Kv7.2/Kv7.3 cells were maintained in the following culture media: • DMEM/F-12 with GlutaMAX™ (Gibco 31331-028), • 10% Fetal clone 2 serum (Perbio Science SH30066.03), • 1 mg/ml Geneticin™ selective antibiotic (G418, Invitrogen 1013027), and • 5 μg/ml BlasticidinS HCl (Invivogen Ant-bl-5).
On the day of the experiment, cells were resuspended in serum free media, counted and diluted to a final concentration of 3.5×10^6 cells per ml of media.
Cells were then placed onto the Sophion Qube 384 and rested for a minimum of 1 hour.
The following solutions were used for recording: • extracellular solution (in mM): 145 NaCl, 4 KCl, 1 MgCl2, 2 CaCl2), 10 HEPES, 10 glucose, pH 7.4, 315-320 mOsm. • intracellular solution (in mM): 120 KCl, 5.74 CaCl2), 1.75 MgCl2, 10 EGTA, 10 HEPES, 5 Na2ATP, pH 7.2, adjusted to 315 mOsm with sucrose.
After establishing the whole-cell configuration, cells were held at −80 mV throughout the experiment. A current-voltage (I-V) protocol stepping from −100 to +20 mV for 1 second was applied to measure Kv7.2/Kv7.3 currents, each step was followed by a 200 ms pulse to 0 mV to measure the tail currents. From the I-V protocol a Boltzmann fit was applied to generate activation curves. Data were sampled at 25 kHz and filtered at 5 kHz (Bessel). Data were produced using multihole QChips. The I-V protocol was applied several times to establish the response in control conditions (typically 0.3% DMSO) and in the presence of the test compound.
Data were reviewed in Sophion Analyser version 6.5.2 (Sophion Bioscience) for recording quality and filters were applied to remove any failed wells. Leak subtraction was applied to all recordings. Data filters for multihole QChips were typically: seal resistance>4 MΩ, capacitance >20 pF, baseline VHalf between 0 to −40 mV, baseline holding current between −2 to 2 nA, baseline steady state current at 20 mV >4 nA unless otherwise stated.
Analysis of Data for Assessment of Potency
10 concentrations of test compounds were applied to individual wells in quadruplicate to assess potency as a 1 in 3 dilution series from the maximal concentration of 30 μM. The average shift in the voltage for half activation (Vhalf) for each concentration was used to generate concentration-response curves fitted with a 4-parameter logistic model to estimate the EC50 from the point of inflection of the curve and the maximal shift in the Vhalf from the top of the curve.
The lower the EC50 value, the higher the potency of the analyzed compound. The selectivity criteria is assigned on the basis of the maximal shift in the Vhalf at 30 μM. […] In Table 3, ND means that selectivity was not determined.

With O=C(NCc1ccnc(OCC(F)(F)F)c1)N[C@H](C1CC1)C(F)(F)F [Compound 213] the EC50 was 0.68 µM and the “Kv7.2/7.3 ΔV1/2” value was 31.5 mV.

O=C(NCc1ccnc(OCC(F)(F)F)c1)N[C@@H]1CCN(CC(F)(F)F)C1 [Compound 214] was tested, and the EC50 was 8.95 µM and the “Kv7.2/7.3 ΔV1/2” value was 30.24 mV.

COc1ccc([C@H](CF)NC(=O)NCc2ccnc(OCC(F)(F)F)c2)cc1 [Compound 215] was tested, and the EC50 was 4.17 µM and the “Kv7.2/7.3 ΔV1/2” value was 24.17 mV.

In the case of O=C(NCc1ccnc(OCC(F)(F)F)c1)N[C@@H]1CCCc2c(F)cccc21 [Compound 216], the EC50 is reported as 1.4 µM and the “Kv7.2/7.3 ΔV1/2” value is reported as 49.32 mV.

With C#CCOc1cc(CNC(=O)N[C@@H]2CCCc3c(F)cccc32)ccn1 [Compound 217] the EC50 was 1.76 µM and the “Kv7.2/7.3 ΔV1/2” value was 29.44 mV.

In the case of O=C(NCc1ccnc(OCC(F)(F)F)c1)NC1(C(F)(F)F)COC1 [Compound 218], the EC50 is reported as 8 µM and the “Kv7.2/7.3 ΔV1/2” value is reported as 21.41 mV.

O=C(NCc1ccnc(OCC(F)(F)F)c1)NCC12CC(F)(C1)C2 [Compound 219] was tested, and the EC50 was 2.26 µM and the “Kv7.2/7.3 ΔV1/2” value was 35.95 mV.

In the case of O=C(NCc1ccnc(OCC(F)(F)F)c1)N[C@H]1COC[C@H]1c1ccc(F)cc1 [Compound 220], the EC50 is reported as 11.8 µM and the “Kv7.2/7.3 ΔV1/2” value is reported as 29.83 mV.

In the case of C[C@@H](Oc1cc(CNC(=O)N[C@@H]2COc3ccccc3C2)ncn1)C(F)(F)F [Compound 221], the EC50 is reported as 3.2 µM and the “Kv7.2/7.3 ΔV1/2” value is reported as 35.15 mV.

In the case of O=C(NCc1ccnc(OCC(F)(F)F)c1)N[C@@H]1COC[C@H]1Oc1cccc(F)c1 [Compound 222], the EC50 is reported as 4.16 µM and the “Kv7.2/7.3 ΔV1/2” value is reported as 28.1 mV.

In the case of C[C@@H](Oc1cc(CNC(=O)N[C@@H](C2CC2)C(F)(F)F)ncn1)C(F)(F)F [Compound 223], the EC50 is reported as 7.4 µM and the “Kv7.2/7.3 ΔV1/2” value is reported as 41.12 mV.

With C[C@@H](Oc1cc(CNC(=O)N[C@H](C2CC2)C(F)(F)F)ncn1)C(F)(F)F [Compound 224] the EC50 was 3.43 µM and the “Kv7.2/7.3 ΔV1/2” value was 37.09 mV.

For C[C@@H](Oc1cc(CNC(=O)N[C@@H]2CCOc3cc(F)ccc32)ncn1)C(F)(F)F [Compound 225], the EC50 was 6.41 µM and the “Kv7.2/7.3 ΔV1/2” value was 42.13 mV.

For C[C@@H](NC(=O)NCc1ccnc(OCC(F)(F)F)c1)c1ccc2c(c1)OC(F)(F)O2 [Compound 226], the EC50 was 1.83 µM and the “Kv7.2/7.3 ΔV1/2” value was 22.4 mV.

C[C@@H](NC(=O)NCc1ccnc(OCC(F)(F)F)c1)c1cccc2c1OC(F)(F)O2 [Compound 227] was tested, and the EC50 was 1.86 µM and the “Kv7.2/7.3 ΔV1/2” value was 31.71 mV.

O=C(NCc1ccnc(OCC(F)(F)F)c1)NCC12CC(C(F)(F)F)(C1)C2 [Compound 228] was tested, and the EC50 was 0.97 µM and the “Kv7.2/7.3 ΔV1/2” value was 20.27 mV.

O=C(NCc1ccnc(OCC(F)(F)F)c1)N[C@@H]1COC[C@H]1c1ccc(F)cc1 [Compound 229] was tested, and the EC50 was 12.7 µM and the “Kv7.2/7.3 ΔV1/2” value was 76.14 mV.

O=C(NCc1ccnc(OCC(F)(F)F)c1)N[C@H]1COC[C@@H]1c1ccc(F)cc1 [Compound 230] was tested, and the EC50 was 1.77 µM and the “Kv7.2/7.3 ΔV1/2” value was 20.02 mV.

For O=C(NCc1ccnc(OCC(F)(F)F)c1)N[C@H]1CN(CC(F)(F)F)C[C@@H]1c1ccccc1 [Compound 231], the EC50 was greater than 30 µM and the “Kv7.2/7.3 ΔV1/2” value was 49.96 mV.

With O=C(NCc1ccnc(OCC(F)(F)F)c1)N[C@@H]1CN(CC(F)(F)F)C[C@H]1c1ccccc1 [Compound 232] the EC50 was 1.43 µM and the “Kv7.2/7.3 ΔV1/2” value was 23.95 mV.

In the case of COc1ccc([C@H](NC(=O)NCc2ccnc(OCC(F)(F)F)c2)C(F)(F)F)cc1 [Compound 233], the EC50 is reported as 2.52 µM and the “Kv7.2/7.3 ΔV1/2” value is reported as 28.00 mV.

In the case of O=C(NCc1ccnc(OCC(F)(F)F)c1)N[C@@H]1COC[C@H]1Oc1ccc(F)cc1 [Compound 234], the EC50 is reported as 5.26 µM and the “Kv7.2/7.3 ΔV1/2” value is reported as 27.37 mV.

For O=C(NCc1ccnc(OCC(F)(F)F)c1)N[C@@H]1COC2(CC2)C1 [Compound 235], the EC50 was 6.22 µM and the “Kv7.2/7.3 ΔV1/2” value was 21.79 mV.

In the case of O=C(NCc1ccnc(OCC(F)(F)F)c1)N[C@H]1C[C@H]2CC[C@@H]1O2 [Compound 236], the EC50 is reported as 11.9 µM and the “Kv7.2/7.3 ΔV1/2” value is reported as 31.52 mV.

With O=C(NCc1ccnc(OCC(F)(F)F)c1)N[C@@H]1C[C@@H]2CC[C@H]1O2 [Compound 237] the EC50 was 11.7 µM and the “Kv7.2/7.3 ΔV1/2” value was 29.76 mV.

In the case of C[C@@H](NC(=O)NCc1ccnc(OCC(F)(F)F)c1)c1ccc(OC(F)(F)F)cc1 [Compound 238], the EC50 is reported as 2.91 µM and the “Kv7.2/7.3 ΔV1/2” value is reported as 24.31 mV.

For O=C(NCc1ccnc(OCC(F)(F)F)c1)NCC12CC(F)(CO1)C2 [Compound 239], the EC50 was 5.1 µM and the “Kv7.2/7.3 ΔV1/2” value was 20.11 mV.

O=C(NCc1ccnc(OCC(F)(F)F)c1)N[C@H]1COC2(CC2)C1 [Compound 240] was tested, and the EC50 was 11.7 µM and the “Kv7.2/7.3 ΔV1/2” value was 46.27 mV.

For COc1cccc(N2C[C@H](NC(=O)NCc3ccnc(OCC(F)(F)F)c3)C(F)(F)C2)c1 [Compound 241], the EC50 was 3.32 µM and the “Kv7.2/7.3 ΔV1/2” value was 36.71 mV.

O=C(NCc1ccnc(OCC(F)(F)F)c1)N[C@@H]1CCO[C@H]1c1ccc(F)cc1 [Compound 242] was tested, and the EC50 was 2.98 µM and the “Kv7.2/7.3 ΔV1/2” value was 34.51 mV.

O=C(NCc1ccnc(OCC(F)(F)F)c1)N[C@@H]1COC[C@H]1Oc1ccccc1F [Compound 243] was tested, and the EC50 was 3.73 µM and the “Kv7.2/7.3 ΔV1/2” value was 26.56 mV.

C[C@@H](Oc1cc(CNC(=O)NCC23CC(F)(C2)C3)ncn1)C(F)(F)F [Compound 244] was tested, and the EC50 was 7.59 µM and the “Kv7.2/7.3 ΔV1/2” value was 26.21 mV.

With O=C(NCc1ccnc(OCC(F)(F)F)c1)N[C@@H]1CCO[C@H](c2ccc(F)cc2)C1 [Compound 245] the EC50 was 2.19 µM and the “Kv7.2/7.3 ΔV1/2” value was 46.39 mV.

For Cn1ncc(C(F)(F)F)c1COc1cc(CNC(=O)NCCC2(C(F)(F)F)CC2)ccn1 [Compound 246], the EC50 was 1.76 µM and the “Kv7.2/7.3 ΔV1/2” value was 22.48 mV.

Cc1cnc(COc2cc(CNC(=O)NCCC3(C(F)(F)F)CC3)ccn2)o1 [Compound 247] was tested, and the EC50 was 5.05 µM and the “Kv7.2/7.3 ΔV1/2” value was 24.56 mV.

In the case of O=C(NCc1ccnc(OCC(F)(F)F)c1)NCc1ccnc(OCC(F)(F)F)c1 [Compound 248], the EC50 is reported as 2.61 µM and the “Kv7.2/7.3 ΔV1/2” value is reported as 23.91 mV.

For O=C(NCc1ccnc(OCC(F)(F)F)c1)N[C@@H]1COc2cc(OC(F)(F)F)ccc21 [Compound 249], the EC50 was 3.42 µM and the “Kv7.2/7.3 ΔV1/2” value was 26.44 mV.

For O=C(NCCC1(C(F)(F)F)CC1)NCc1ccnc(OCC2CC2(F)F)c1 (stereo not shown) [Compound 250], the EC50 was 2.58 µM and the “Kv7.2/7.3 ΔV1/2” value was 21.04 mV.
